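Results reflect a 48-hour exposure of cells in 96-well plates to compound at five concentrations. GI50 = concentration required for 50% inhibition of growth. The concentration for full growth arrest is given as TGI.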
Columns and labels:
Assay in all cases: NCI tumour cell line growth inhibition, 48 h
[1] = test system: 786-0 renal
[2] = test system: A498 renal
[3] = test system: A549 NSCLC
[4] = test system: ACHN renal
[5] = test system: CAKI-1 renal
[6] = test system: COLO 205 colon
[7] = test system: EKVX NSCLC
[8] = test system: HCC-2998 colon
[9] = test system: HCT-116 colon
[10] = test system: HCT-15 colon
[11] = test system: HL-60(TB) leukemia
[12] = test system: HOP-62 NSCLC
[13] = test system: HOP-92 NSCLC
[14] = test system: HT29 colon
[15] = test system: IGROV1 ovarian
[16] = test system: KM12 colon
[17] = test system: KM20L2 colon
[18] = test system: LOX IMVI melanoma
[19] = test system: M14 melanoma
[20] = test system: MALME-3M melanoma
[21] = test system: MOLT-4 leukemia
[22] = test system: NCI-H226 lung
[23] = test system: NCI-H23 lung
[24] = test system: NCI-H460 lung
[25] = test system: NCI-H522 lung
[26] = test system: OVCAR-3 ovarian
[27] = test system: OVCAR-4 ovarian
[28] = test system: OVCAR-5 ovarian
[29] = test system: OVCAR-8 ovarian
[30] = test system: RPMI-8226 leukemia
[31] = test system: RXF 393 renal
[32] = test system: SF-268 CNS
[33] = test system: SF-295 CNS
[34] = test system: SF-539 CNS
[35] = test system: SK-MEL-28 melanoma
[36] = test system: SK-MEL-5 melanoma
[37] = test system: SK-OV-3 ovarian
[38] = test system: SN12C renal
[39] = test system: SNB-19 CNS
[40] = test system: SNB-75 CNS
[41] = test system: SW-620 colon
[42] = test system: TK-10 renal
[43] = test system: U251 CNS
[44] = test system: UACC-257 melanoma
[45] = test system: UACC-62 melanoma
[46] = test system: UO-31 renal
[47] = test system: BT-549 breast
[48] = test system: CCRF-CEM leukemia
[49] = test system: DU-145 prostate
[50] = test system: HS 578T breast
[51] = test system: K-562 leukemia
[52] = test system: MCF7 breast
[53] = test system: MDA-MB-231 breast
[54] = test system: MDA-MB-435
[55] = test system: MDA-N
[56] = test system: NCI/ADR-RES ovarian
[57] = test system: PC-3 prostate
[58] = test system: SK-MEL-2 melanoma
[59] = test system: SR leukemia
[60] = test system: T-47D breast

CCC[CH2][Sn]([CH2]CCC)([CH2]CCC)[O]C(=O)C(OC)c1ccccc1 (stereo not given)
GI50 [1]: 142 nM
TGI [1]: 288 nM
GI50 [2]: 123 nM
TGI [2]: 263 nM
GI50 [3]: 117 nM
TGI [3]: 265 nM
GI50 [4]: 129 nM
TGI [4]: 257 nM
GI50 [5]: 115 nM
TGI [5]: 238 nM
GI50 [6]: 134 nM
TGI [6]: 264 nM
GI50 [7]: 27.7 nM
TGI [7]: 228 nM
GI50 [8]: 38.1 nM
TGI [8]: 144 nM
GI50 [9]: 50.8 nM
TGI [9]: 182 nM
GI50 [10]: 86.4 nM
TGI [10]: 211 nM
GI50 [11]: 41.8 nM
TGI [11]: 256 nM
GI50 [12]: 135 nM
TGI [12]: 270 nM
GI50 [13]: 27.4 nM
TGI [13]: 175 nM
GI50 [14]: 50.7 nM
TGI [14]: 168 nM
GI50 [15]: 130 nM
TGI [15]: 295 nM
GI50 [16]: 52 nM
TGI [16]: 178 nM
GI50 [17]: 49.1 nM
TGI [17]: 171 nM
GI50 [18]: 30.9 nM
TGI [18]: 130 nM
GI50 [19]: 133 nM
TGI [19]: 263 nM
GI50 [20]: 112 nM
TGI [20]: 234 nM
TGI [21]: 835 nM
GI50 [22]: 104 nM
TGI [22]: 252 nM
GI50 [23]: 49.9 nM
TGI [23]: 179 nM
GI50 [24]: 83.5 nM
TGI [24]: 217 nM
GI50 [25]: 88.5 nM
TGI [25]: 212 nM
GI50 [26]: 84.5 nM
TGI [26]: 213 nM
GI50 [27]: 60.4 nM
TGI [27]: 189 nM
GI50 [28]: 37.1 nM
TGI [28]: 183 nM
GI50 [29]: 141 nM
TGI [29]: 272 nM
GI50 [30]: 20.6 nM
TGI [30]: 306 nM
GI50 [31]: 56.1 nM
TGI [31]: 194 nM
GI50 [32]: 112 nM
TGI [32]: 327 nM
GI50 [33]: 130 nM
TGI [33]: 259 nM
GI50 [34]: 134 nM
TGI [34]: 268 nM
GI50 [35]: 137 nM
TGI [35]: 270 nM
GI50 [36]: 133 nM
TGI [36]: 262 nM
GI50 [37]: 122 nM
TGI [37]: 246 nM
GI50 [38]: 117 nM
TGI [38]: 240 nM
GI50 [39]: 156 nM
TGI [39]: 301 nM
GI50 [40]: 82.4 nM
TGI [40]: 513 nM
GI50 [41]: 112 nM
TGI [41]: 236 nM
GI50 [42]: 263 nM
TGI [42]: 984 nM
GI50 [43]: 106 nM
TGI [43]: 225 nM
GI50 [44]: 96.9 nM
TGI [44]: 217 nM
GI50 [45]: 91.3 nM
TGI [45]: 215 nM
GI50 [46]: 113 nM
TGI [46]: 234 nM

CCOC(=O)c1nc2cc(C(F)(F)F)ccc2nc1Oc1ccc(F)cc1
TGI [1]: > 100000 nM
TGI [2]: > 100000 nM
TGI [3]: > 100000 nM
TGI [4]: > 100000 nM
TGI [47]: > 100000 nM
TGI [5]: > 100000 nM
TGI [48]: > 100000 nM
TGI [6]: > 100000 nM
TGI [49]: > 100000 nM
TGI [7]: > 100000 nM
TGI [8]: > 100000 nM
TGI [9]: 64200 nM
TGI [10]: > 100000 nM
TGI [11]: > 100000 nM
TGI [13]: > 100000 nM
TGI [50]: > 100000 nM
TGI [15]: > 100000 nM
TGI [51]: > 100000 nM
TGI [16]: > 100000 nM
TGI [18]: > 100000 nM
TGI [19]: > 100000 nM
TGI [20]: > 100000 nM
TGI [52]: > 100000 nM
TGI [53]: > 100000 nM
TGI [54]: > 100000 nM
TGI [55]: > 100000 nM
TGI [21]: > 100000 nM
TGI [22]: > 100000 nM
TGI [24]: > 100000 nM
TGI [25]: > 100000 nM
TGI [56]: > 100000 nM
TGI [26]: > 100000 nM
TGI [27]: > 100000 nM
TGI [28]: > 100000 nM
TGI [29]: > 100000 nM
TGI [57]: > 100000 nM
TGI [30]: > 100000 nM
TGI [31]: > 100000 nM
TGI [32]: > 100000 nM
TGI [33]: > 100000 nM
TGI [34]: > 100000 nM
TGI [58]: > 100000 nM
TGI [35]: > 100000 nM
TGI [36]: > 100000 nM
TGI [38]: > 100000 nM
TGI [39]: > 100000 nM
TGI [40]: > 100000 nM
TGI [59]: > 100000 nM
TGI [41]: > 100000 nM
TGI [60]: > 100000 nM
TGI [42]: > 100000 nM
TGI [43]: > 100000 nM
TGI [44]: > 100000 nM
TGI [45]: > 100000 nM
TGI [46]: > 100000 nM

CC(CC[C@@]1(O)OC2C[C@H]3[C@@H]4CC[C@H]5CC(OC6OC(CO)C(OC7OC(CO)C(O)C(OC8OCC(O)C(O)C8O)C7OC7OC(CO)C(O)C(O)C7O)C(O)C6O)[C@H](O)CC5(C)[C@H]4CCC3(C)C2[C@@H]1C)COC1OC(CO)C(O)C(O)C1O (stereo not given in full)
TGI [1]: 21800 nM
TGI [2]: > 50000 nM
TGI [3]: 11100 nM
TGI [4]: > 50000 nM
TGI [47]: 6640 nM
TGI [5]: 43800 nM
TGI [48]: > 50000 nM
TGI [6]: 31000 nM
TGI [49]: 10300 nM
TGI [7]: 8900 nM
TGI [8]: 34200 nM
TGI [9]: 47300 nM
TGI [10]: > 50000 nM
TGI [11]: 29100 nM
TGI [12]: 17900 nM
TGI [13]: > 50000 nM
TGI [50]: > 50000 nM
TGI [14]: 33400 nM
TGI [15]: > 50000 nM
TGI [51]: > 50000 nM
TGI [16]: > 50000 nM
TGI [18]: 48800 nM
TGI [19]: > 50000 nM
TGI [20]: > 50000 nM
TGI [52]: > 50000 nM
TGI [53]: > 50000 nM
TGI [54]: > 50000 nM
TGI [55]: > 50000 nM
TGI [21]: > 50000 nM
TGI [22]: 28800 nM
TGI [23]: 15900 nM
TGI [24]: 10200 nM
TGI [25]: 22300 nM
TGI [56]: 31100 nM
TGI [26]: 23100 nM
TGI [27]: 36900 nM
TGI [28]: 27800 nM
TGI [29]: > 50000 nM
TGI [57]: > 50000 nM
TGI [30]: > 50000 nM
TGI [31]: 17200 nM
TGI [32]: 9320 nM
TGI [33]: 45200 nM
TGI [34]: 10700 nM
TGI [58]: 31600 nM
TGI [35]: > 50000 nM
TGI [36]: 17700 nM
TGI [37]: 43300 nM
TGI [38]: 19600 nM
TGI [39]: > 50000 nM
TGI [40]: 9190 nM
TGI [59]: > 50000 nM
TGI [41]: > 50000 nM
TGI [60]: 34600 nM
TGI [42]: 16600 nM
TGI [43]: > 50000 nM
TGI [44]: 48200 nM
TGI [45]: 45600 nM
TGI [46]: 21300 nM

— PubChem BioAssay (NCI)
